Experimental data published in article PMC6792352, “Limited Chemical Structural Diversity Found to Modulate Thyroid Hormone Receptor in the Tox21 Chemical Library” (Environmental Health Perspectives, 2019).
Structures can show the parent of a compound that is named as a salt.

Assay: in vitro
Conditions: rat, gh3-tre-luc cells

SMILES	CC50 at 24 h (AC50 (uM) modified / 1000)	further results
CCCCNc1ccc(C(=O)OCCOCCOCCOCCOCCOCCOCCOCCOCCOC)cc1 [Benzonatate]	> 20 µM	
N#Cc1ccccc1 [Benzonitrile]	> 90 µM	
O=C(c1ccccc1)c1ccccc1 [Benzophenone]	> 50 µM	
O=C(c1ccc2c(c1)C(=O)OC2=O)c1ccc2c(c1)C(=O)OC2=O [Benzophenonetetracarboxylic dianhydride]	> 90 µM	
c1ccc2scnc2c1 [Benzothiazole]	> 90 µM	
ClC(Cl)(Cl)c1ccccc1 [Benzotrichloride]	> 90 µM	
O=C(Oc1cccc2cccnc12)c1ccccc1 [Benzoxiquine]	12 µM	
O=C(Cl)c1ccccc1 [Benzoyl chloride]	> 90 µM	
NNC(=O)c1ccccc1 [Benzoyl hydrazine]	> 90 µM	
O=C(OOC(=O)c1ccccc1)c1ccccc1 [Benzoyl peroxide]	> 50 µM	
CN1[C@H]2CC[C@@H]1[C@@H](C(=O)O)[C@@H](OC(=O)c1ccccc1)C2 [Benzoylecgonine]		CC50 at 24 h (AC50 (uM) modified / 1000, Tox21_110001=Tox21_112607, viability, 1 nM T3 present, 24 h): > 50 µM; CC50 at 24 h (AC50 (uM) modified / 1000, Tox21_110001=Tox21_112853, viability, 1 nM T3 present, 24 h): > 100 µM
O=C(Nc1ccc(C(=O)O)c(O)c1)c1ccccc1 [Benzoylpas]	> 50 µM	
NS(=O)(=O)c1cc2c(cc1Cl)N=C(CSCc1ccccc1)NS2(=O)=O [Benzthiazide]	> 20 µM	
CN1[C@@H]2CC[C@H]1CC(OC(c1ccccc1)c1ccccc1)C2 (stereo partly shown) [Benztropine methylsulfonate]	20.1 µM	
CN(C)CCCOc1nn(Cc2ccccc2)c2ccccc12 [Benzydamine hydrochloride]	6.35 µM	
CC(C)CC(=O)OCc1ccccc1 [Benzyl 3-methylbutanoate]	> 90 µM	
CC(C)CCOCc1ccccc1 [Benzyl 3-methylbutyl ether]	> 90 µM	
CC(=O)OCc1ccccc1 [Benzyl acetate]	> 90 µM	
OCc1ccccc1 [Benzyl alcohol]	> 90 µM	
O=C(OCc1ccccc1)c1ccccc1 [Benzyl benzoate]	> 90 µM	
O=C(CBr)OCc1ccccc1 [Benzyl bromoacetate]	> 90 µM	

SMILES	CC50 at 24 h (AC50 (uM) modified / 1000)	further results
CCCCOC(=O)c1ccccc1C(=O)OCc1ccccc1 [Benzyl butyl phthalate]	> 90 µM	
CCCC(=O)OCc1ccccc1 [Benzyl butyrate]	> 90 µM	
O=C(/C=C/c1ccccc1)OCc1ccccc1 [Benzyl cinnamate]	> 90 µM	
N#CCc1ccccc1 [Benzyl cyanide]	> 90 µM	
S=C=NCc1ccccc1 [Benzyl isothiocyanate]	> 90 µM	
C=C(C)C(=O)OCc1ccccc1 [Benzyl methacrylate]	> 90 µM	
O=C(OCc1ccccc1)c1cccnc1 [Benzyl nicotinate]	> 50 µM	
O=C(Cc1ccccc1)OCc1ccccc1 [Benzyl phenylacetate]		CC50 at 24 h (AC50 (uM) modified / 1000, Tox21_110001=Tox21_200685, viability, 1 nM T3 present, 24 h): > 90 µM
CCC(=O)OCc1ccccc1 [Benzyl propanoate]	> 90 µM	
O=C(OCc1ccccc1)c1ccccc1O [Benzyl salicylate]	> 90 µM	
c1ccc(CSCc2ccccc2)cc1 [Benzyl sulfide]	> 90 µM	
N#CSCc1ccccc1 [Benzyl thiocyanate]		CC50 at 24 h (AC50 (uM) modified / 1000, Tox21_110001=Tox21_200015, viability, 1 nM T3 present, 24 h): > 90 µM
C/C=C(\C)C(=O)OCc1ccccc1 [Benzyl tiglate]	> 90 µM	
CC(=O)CCc1ccccc1 [Benzylacetone]	> 90 µM	
NCc1ccccc1 [Benzylamine]	> 90 µM	
CCCCCCCCCCCC[N+](C)(C)Cc1ccccc1 [Benzyldimethyldodecylammonium chloride]	10.6 µM	
CCCCCCCCCCCCCC[N+](C)(C)Cc1ccccc1 [Benzyldimethyltetradecylammonium chloride dihydrate]	10.5 µM	
NNCc1ccccc1 [Benzylhydrazine dihydrochloride]		CC50 at 24 h (AC50 (uM) modified / 1000, Tox21_110001=Tox21_200489, viability, 1 nM T3 present, 24 h): > 90 µM
NS(=O)(=O)c1cc2c(cc1Cl)NC(Cc1ccccc1)NS2(=O)=O (stereo not shown) [Benzylhydrochlorothiazide]	> 50 µM	
O=C(OCc1ccccc1)c1ccc(O)cc1 [Benzylparaben]	> 90 µM	
C[N+](C)(C)Cc1ccccc1 [Benzyltrimethylammonium chloride]	> 90 µM	

SMILES	CC50 at 24 h (AC50 (uM) modified / 1000)	further results
CC(C)COCC(CN(Cc1ccccc1)c1ccccc1)N1CCCC1 (stereo not shown) [Bepridil]	9.16 µM	
COc1ccc2cc3[n+](cc2c1OC)CCc1cc2c(cc1-3)OCO2 [Berberine chloride]	88.5 µM	
COc1c(O)cc2c(c1O)[C@@H]1O[C@H](CO)[C@@H](O)[C@H](O)[C@H]1OC2=O [Bergenin monohydrate]	> 20 µM	
O=c1[nH]c2ccc([S+]([O-])CCN3CCC(Cc4ccc(F)cc4)CC3)cc2o1 (stereo not shown) [Besonprodil]	> 90 µM	
CNCCc1ccccn1 [Betahistine mesylate]	> 20 µM	
C[N+](C)(C)CC(=O)O [Betaine monohydrate]	> 90 µM	
CCCC(=O)O[C@]1(C(=O)COC(=O)CC)[C@@H](C)C[C@H]2[C@@H]3CCC4=CC(=O)C=C[C@]4(C)[C@@]3(F)[C@@H](O)C[C@@]21C [Betamethasone butyrate propionate]	> 50 µM	
CCC(=O)OCC(=O)[C@@]1(OC(=O)CC)[C@@H](C)C[C@H]2[C@@H]3CCC4=CC(=O)C=C[C@]4(C)[C@@]3(F)[C@@H](O)C[C@@]21C [Betamethasone dipropionate]	> 50 µM	
CCCCC(=O)O[C@]1(C(=O)CO)[C@@H](C)C[C@H]2[C@@H]3CCC4=CC(=O)C=C[C@]4(C)[C@@]3(F)[C@@H](O)C[C@@]21C [Betamethasone valerate]	77.9 µM	
C[C@H]1C[C@H]2[C@@H]3CCC4=CC(=O)C=C[C@]4(C)[C@@]3(F)[C@@H](O)C[C@]2(C)[C@@]1(O)C(=O)CO [Betamethasone]	> 90 µM	
O=C(O)CCNC(=O)c1ccccc1 [Betamipron]	> 50 µM	
CCC(=O)O[C@]1(c2ccccc2)CCN(C)C[C@H]1C [Betaprodine]		CC50 at 24 h (AC50 (uM) modified / 1000, Tox21_110001=Tox21_112620, viability, 1 nM T3 present, 24 h): > 50 µM
CC(C)NCC(O)COc1ccc(CCOCC2CC2)cc1 (stereo not shown) [Betaxolol]	> 50 µM	
NCCc1cc[nH]n1 [Betazole hydrochloride]	> 20 µM	
CC(C[N+](C)(C)C)OC(N)=O (stereo not shown) [Bethanechol]	> 50 µM	
C/N=C(\NC)NCc1ccccc1 [Bethanidine sulfate (2:1)]	> 50 µM	
O=C(O)CNC(=O)CNC(=O)CNC(=O)CSC(=O)c1ccccc1 [Betiatide]	> 50 µM	
COc1ccc(CCNCC(O)COc2cccc(C)c2)cc1OC (stereo not shown) [Bevantolol hydrochloride]	20.6 µM	
C=C(c1ccc(C(=O)O)cc1)c1cc2c(cc1C)C(C)(C)CCC2(C)C [Bexarotene]	16.1 µM	
C[C@@H](O)[C@H]1C(=O)N2C(C(=O)[O-])=C(SC3Cn4cnc[n+]4C3)[C@H](C)[C@H]12 (stereo partly shown) [Biapenem]	> 50 µM	
c1ccc(CCc2ccccc2)cc1 [Bibenzyl]	> 90 µM	

SMILES	CC50 at 24 h (AC50 (uM) modified / 1000)	further results
CC(O)(CS(=O)(=O)c1ccc(F)cc1)C(=O)Nc1ccc(C#N)c(C(F)(F)F)c1 (stereo not shown) [Bicalutamide]	> 50 µM	
CCOC(=O)[C@H](CS)NCCN[C@@H](CS)C(=O)OCC [Bicisate dihydrochloride]	> 50 µM	
COc1ccc(-c2ccccc2)cc1NNC(=O)OC(C)C [Bifenazate]	87.4 µM	
COC(=O)c1cc(Oc2ccc(Cl)cc2Cl)ccc1[N+](=O)[O-] [Bifenox]	> 90 µM	
c1ccc(-c2ccc(C(c3ccccc3)n3ccnc3)cc2)cc1 (stereo not shown) [Bifonazole]	45.2 µM	
O=C(COCCOCCOCC(=O)Nc1c(I)cc(I)c(C(=O)O)c1I)Nc1c(I)cc(I)c(C(=O)O)c1I [Biliscopin]	> 50 µM	
O=C(O)Cc1cccc(-c2cc(CCCCCCc3ccc(O[C@H]4O[C@H](CO)[C@@H](O)[C@H](O)[C@@H]4O)c(-c4cccc(CC(=O)O)c4)c3)ccc2O[C@H]2O[C@H](CO)[C@@H](O)[C@H](O)[C@@H]2O)c1 [Bimosiamose]	> 50 µM	
CCC(C)c1cc([N+](=O)[O-])cc([N+](=O)[O-])c1OC(=O)C=C(C)C (stereo not shown) [Binapacryl]	36.3 µM	
O=C1CC2(CCCC2)CC(=O)N1CCNCC1COc2ccccc2O1 (stereo not shown) [Binospirone mesylate]	41.9 µM	
COc1ccc(-c2coc3cc(O)cc(O)c3c2=O)cc1 [Biochanin A]	> 90 µM	
CC(C)=C[C@@H]1[C@@H](C(=O)OCc2coc(Cc3ccccc3)c2)C1(C)C [Bioresmethrin]	> 90 µM	
O=C(O)CCCC[C@@H]1SC[C@@H]2NC(=O)N[C@@H]21 [Biotin]	> 90 µM	
NCc1ccccc1Sc1ccccc1CO [Bipenamol]	> 50 µM	
c1ccc(-c2ccccc2)cc1 [Biphenyl]	> 90 µM	
S=C(SSSSSSC(=S)N1CCCCC1)N1CCCCC1 [Bis(1-piperidinylthioxomethyl)hexasulfide]	0.0827 µM	
CC1(C)CC(OC(=O)CCCCCCCCC(=O)OC2CC(C)(C)NC(C)(C)C2)CC(C)(C)N1 [Bis(2,2,6,6-tetramethyl-4-piperidyl) sebacate]	1.55 µM	
CCCCOCCOC(=O)CCCCCCCCC(=O)OCCOCCCC [Bis(2-butoxyethyl) decanedioate]	> 90 µM	
CCCCOCCOC(=O)c1ccccc1C(=O)OCCOCCCC [Bis(2-butoxyethyl) phthalate]	> 90 µM	
CCC(C)OC(C)CC (stereo not shown) [Bis(2-butyl) ether]	> 100 µM	
ClCCOCOCCCl [Bis(2-chloroethoxy)methane]		CC50 at 24 h (AC50 (uM) modified / 1000, Tox21_110001=Tox21_200284, viability, 1 nM T3 present, 24 h): > 100 µM
ClCCOCCCl [Bis(2-chloroethyl) ether]	> 90 µM	
